The values below come from patent publication US20100143440A1, “UL97 INHIBITORS FOR TREATMENT OF PROLIFERATIVE DISORDERS” (The UAB Research Foundation, priority 2007, published 2010).

One assay deals with GS strain of HHV-6A. As to the kind of experiment: Efficacy against HHV-6A in HSB-2 cells with reduced serum. Type of assay: cell-based. The procedure: The activity of MBV was evaluated against the GS strain of HHV-6A in HSB-2 cells with reduced serum to slow the growth of lymphocytes.
In the next assay the target is T1, HCMV UL97 kinase (Human cytomegalovirus, UniProt P16788).
T1 construct: expressed in transfected cells; host or cells: COS7 cells (transient co-transfection)
Briefly: Surrogate assay: UL97 kinase dependent inhibition of pp65-GFP nuclear aggregation. It is filed as cell-based.

Assay [1] addresses T2, HHV-6B U69 protein kinase (Human herpesvirus 6B, UniProt P52446).
T2 construct: expressed in transfected cells
Briefly: Surrogate assay: U69 kinase dependent inhibition of pp65-GFP nuclear aggregation. Type of assay: cell-based. The note with it: 15 μM MBV, FIG. 8; listed as MBV. The source says:
This assay is similar to that reported previously for UL97 (Prichard, M. N., et al., 2005. Human cytomegalovirus UL97 Kinase is required for the normal intranuclear distribution of pp65 and virion morphogenesis. J Virol 79:15494-502). […] Inhibition of aggregation was kinase dependent since the U69B K219M mutation, which eliminates an essential lysine, is incapable of inhibiting aggregation.

The next assay addresses T3, UL97 kinase (Human cytomegalovirus, UniProt P16788).
T3 construct: expressed in transfected cells; host or cells: COS7 cells (transient co-transfection)
Briefly: UL97 kinase inhibition of pp71 aggregation in cotransfected COS7 cells. It is filed as cell-based, HCMV.

The target of the next assay is T4, pUL97 (Human cytomegalovirus, UniProt P16788).
T4 construct: expressed in transfected cells; host or cells: COS7 cells (transient co-transfection)
Briefly: Number of PML bodies in COS7 cells expressing pUL97. The note with it: FIG. 3F. Type of assay: cell-based, HCMV. The procedure: Indirect immunofluorescence microscopy. Cells expressing proteins from transfected plasmids were visualized by methods published previously (Prichard et al., J. Virol. 79:15494-502 (2005)). Briefly, monolayers of HFF cells were grown on 12 mm diameter coverslips in 24-well plates. Transfected cells were fixed for 15 minutes with freshly prepared 2% formaldehyde in phosphate buffered saline (PBS), washed two times with PBS, and membranes were permeabilized with 0.2% Triton X-100 in PBS for 15 minutes. Monoclonal antibody to the V5 epitope tag was purchased from Invitrogen (Carlsbad, Calif.). Monoclonal antibodies to IE1 (63-27) and ppUL44 (28-21) were generously provided by Bill Britt and were used as culture supernatants with goat anti-mouse secondary antibodies conjugated to FITC or Texas Red (Southern Biotechnology, Birmingham, Ala.).
PML bodies are affected by the kinase. Nuclear aggresomes form in a dynamic microtubule dependent process that initiates with fusion of small aggregations located at or near PML bodies. To determine the effect of pUL97 on these structures, this and other proteins were expressed in COST cells and visualized PML bodies with an antibody to SP100, which is a marker of these domains. […] Their number was also unaffected by the expression of pp71, however it colocalized with these structures and is consistent with previous reports. […]

The test system of the next assay is hyperphosphorylated Rb. Briefly: Western blot of Rb and p53 in HCMV infected HFF cells. Type of assay: cell-based, human. Here is the method:
Polyacrylamide gels and western blotting. HFF cells were infected at a multiplicity of infection of 2 PFU/cell and at 24 and 72 hours following infection they were disrupted in 2× Lamelli buffer (Sigma-Aldrich, St. Louis, Mo.) and separated on 10%, 7.5%, or 5% polyacrylamide gels depending on the size of the protein to be resolved (BioRad, Hercules, Calif.). Separated proteins were transferred to PVDF membranes (Roche Applied Science, Indianapolis, Ind.) in a buffer containing 28 mM Tris, 39 mM glycine, 0.0375% SDS and 20% methanol in a semi dry transfer cell (BioRad, Hercules, Calif.). Membranes were blocked in 1% blocking buffer (Roche Applied Science, Indianapolis, Ind.), incubated with primary antibodies overnight at 4° C. and washed extensively with PBS supplemented with 0.02% tween 20. A secondary antibody conjugated to alkaline phosphatase (Southern Biotechnology Associates, Birmingham, Ala.) and CDP* (Roche Applied Science, Indianapolis, Ind.) were used to detect the bound primary antibody. Monoclonal antibodies used in these studies were directed against PML (H-238) (Santa Cruz Biotechnology, Santa Cruz, Calif.), DAXX (Upstate Cell Signaling Solutions, Tamecula, Calif.), p53, retinoblastoma, β-tubulin, CREB binding protein (CBP) (Chemicon International, Tamecula, Calif.), and both V5 and Xpress (Invitrogen, Carlsbad, Calif.).
UL97 kinase activity is required for the hyperphosphorylation of Rb. […] Proteins in this complex were examined by Western blots using samples derived from HFF cells that were uninfected, infected with AD169 a recombinant virus (RCΔA97) containing a large deletion in UL97 at a multiplicity of infection of 3 PFU/cell. Some of the infections were conducted in the presence of MBV to confirm that the observed changes were due to a deficiency of its kinase activity. […] In cells infected with the wt virus, increases in levels of p53 were observed (FIG. 4 lanes 9-12), but this increase was unaffected by the deletion of the UL97 open reading frame or treatment with maribavir. Also consistent with this previous report was an increase of hyperphosphorylated Rb at both 24 and 72 hours following infection (FIG. 4, lanes 3, 9). […] A previous report has shown that pp71 directs the proteasome dependent degradation of hypophosphorylated Rb, however observations presented here are distinct in that the hyperphosphorylation and stabilization of this form of Rb is inefficient in the absence UL97 kinase activity.

For another assay, the system named is HHV-6. The note with it: Williams-Aziz et al. 2005; cited from earlier work.

Where two headings read alike, the source gives them in different places.

For the compound `CC(C)Nc1nc2cc(Cl)c(Cl)cc2n1[C@H]1O[C@@H](CO)[C@H](O)[C@@H]1O` [maribavir], the EC50 (commonly the concentration that produces a half-maximal response) is 9 to 30 µM in the assay with GS strain of HHV-6A (HSB2, GS strain of HHV-6A, HSB-2 cells, reduced serum, read-out: EC50 values under conditions of reduced serum); 30 µM in the assay on GS strain of HHV-6A (HSB2, HHV-6A in HSB-2 cells, 2% FBS, read-out: EC50); 9 µM with GS strain of HHV-6A (HSB2, HHV-6A in HSB-2 cells, 5% FBS, read-out: EC50); more than 50 µM in the assay on GS strain of HHV-6A (HSB2, HHV-6A in HSB-2 cells, 10% FBS, read-out: EC50). The “Effect on ability of UL97 to inhibit pp65-GFP aggregation” value on HCMV UL97 kinase (15 μM MBV, FIG. 8, listed as MBV) was “reduces the ability of UL97 and U69 to inhibit aggregation”. Further, at HCMV UL97 kinase (COS7 cells co-expressing pp65-GFP and UL97), the “Effect on inhibition of pp65 aggregate formation by the kinase” value is listed as “antagonized”. Also, in assay [1], the “Effect on ability of U69 to inhibit pp65-GFP aggregation” value is “reduces the ability of UL97 and U69 to inhibit aggregation”. For the same compound, the “Effect on kinase inhibition of pp71 aggregation” value on UL97 kinase was “unable to inhibit the aggregation of pp71 in the presence of MBV”. Moreover, the “Effect on pUL97 reduction of the number of PML bodies” value on pUL97 is reported as “neither the K355M mutant, or pUL97 in the presence of maribavir could affect their numbers”. In addition, the “Levels of hyperphosphorylated Rb” value is “relatively unaffected” in the assay with hyperphosphorylated Rb (HFF cells infected with UL97 deletion virus RCΔ97) and “significantly reduced” in the assay with hyperphosphorylated Rb (HFF cells infected with wt virus AD169, 72 hours after infection). Further, in the assay on hyperphosphorylated Rb (HFF cells infected with wt virus), the “Increase in levels of p53” value is “unaffected”. Besides, the “Increase of hyperphosphorylated Rb” value in the assay with hyperphosphorylated Rb (HFF cells infected with wt virus AD169, 24 hours post infection) was “did not occur”. The “Hyperphosphorylated forms of Rb” value in the assay with hyperphosphorylated Rb (infected cells, 24 and 72 hours, FIG. 4 legend) was “reduced”. The “Inhibition of HHV-6 replication” value with HHV-6 is listed as “poor inhibitor”.
